Data reported in patent US20240150306A1, “COMPOUNDS WITH CLEAVABLE DISULFIDE MOIETIES” (REINVIGORON THERATECH, INC., priority 2022, published 2024).

How the values were obtained:
[1] = test system: 4T1 murine breast cancer cells; assay: Cell viability / cytotoxicity detection (ONE-Glo+Tox); assay type: cell-based
Procedure: (§1) 4T1 murine breast cancer cells were seeded into white 96-well plate with the density of 1×10^4 cells per well. After 24 h, cells were replaced by 180 μL fresh RPMI 1640 medium (10% FBS), and 20 μL mRNA-Luc or Luc-pDNA encapsulated CLLM Nanoparticle formulations were added with fixed 100 ng mRNA or 200 ng pDNA per well. Free mRNA-Luc or Luc-pDNA were used as the control. Cells were further incubated for 24 h and ONE-Glo+Tox kits were used for mRNA expression and cytotoxicity detection based on the standard protocol.

[2] = test system: 4T1 murine breast cancer cells; assay: In vitro luciferase expression (ONE-Glo+Tox); assay type: cell-based; conditions: 100 ng mRNA or 200 ng pDNA per well, 24 h, FIGS. 11 and 12
Procedure: as §1

Compound: CCCCCCCCCCCCCCOC(=O)CCN(CCSSCCN(C)C)CCC(=O)OCCCCCCCCCCCCCC [CLLM-2]
- tolerability of drug delivery (mRNA nanoparticle formulations) ([1]; 100 ng mRNA in 200 uL medium per well, FIG. 11): tolerated
- tolerability of drug delivery (pDNA nanoparticle formulations) ([1]; 200 ng pDNA in 200 uL medium per well, FIG. 12): tolerated
- luciferase expression / delivery of mRNA and pDNA into cells [2]: can deliver mRNA and pDNA into cells
